Several values for one entry are separate records, joined by “and”; a condition that tells them apart may be missing. Equal values may be shown once.
How the values were obtained:
[1] = tested on: lysyl oxidase family members in KPC CAFs; test: qRT-PCR of lysyl oxidase family members after treatment (Extended Data Figs. 2d, 3h); type: cell-based, mouse; set-up: qRT-PCR LOX (Ct) / qRT-PCR LOX ΔCt / qRT-PCR LOX ΔΔCt KPC CAF / qRT-PCR LOXL1 ΔCt / qRT-PCR LOXL1 ΔΔCt KPC CAF / qRT-PCR LOXL2 ΔCt / qRT-PCR LOXL2 ΔΔCt KPC CAF / qRT-PCR LOXL3 ΔCt / qRT-PCR LOXL3 ΔΔCt KPC CAF / qRT-PCR LOXL4 ΔCt / qRT-PCR LOXL4 ΔΔCt KPC CAF: dose or concentration left out as unconfirmed;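 as to qRT-PCR LOX ΔCt: 30 µM PXS-5505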;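 as to qRT-PCR LOXL2 ΔCt: 30 µM PXS-5505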;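 as to qRT-PCR LOXL3 ΔCt: 30 µM PXS-5505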;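 as to qRT-PCR LOXL4 ΔCt: 30 µM PXS-5505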
Description: RNA was isolated using the RNeasy mini kit (QIAGEN) according to the manufacturer’s instructions. Then, 1 μg of RNA was reverse transcribed using the Transcriptor First Strand cDNA Synthesis kit (Roche LifeScience) with anchored-oligo(dT)18 primers or the QuantiTect Reverse Transcription kit (QIAGEN). Real-time PCR was performed using the Roche LightCycler480 (Roche LifeScience) or QuantStudio 7 (Thermo Fisher). The following probe sets from Applied Biosystems, were used: LOX, Mm00495386; LOXL1, Mm01145738; LOXL2, Mm00804740; LOXL3, Mm01184867; LOXL4, Mm00446385; and GAPDH, Mm99999915. Primers and Roche Universal Probe Library probes used for RT–qPCR are described in Supplementary Table 4. Relative mRNA expression levels for each transcript of interest were normalized to GAPDH or ACTB (as indicated) and quantified using the comparative double ΔCt method (unless stated otherwise) for each biological replicate.
Extended Data Fig. 2 Characterization of cells derived from the KPC autochthonous model. a. Immunofluorescence staining of KPC CCs and KPC CAFs for the pancreatic epithelial cell marker CDH1 (green), DAPI (blue) and for the CAF marker α-SMA (yellow), DAPI (blue). Representative images from n = 3 biological independent samples. Scale bar = 30 μm. b. RNAseq reads for CAF and epithelial cell makers in KPC CAFs n = 3 biological independent samples. […] Data is presented as mean values ± SEM. […] Data presented as mean values +/− SD. […] Source data
Data presented as mean values +/− SD. f. […] Data presented as mean values +/− SD. […] Data presented as mean values +/− SD. […] Data presented as mean values +/− SD. Ordinary one-way ANOVA for multiple comparison test performed. Source data

KPC PDAC tumors = test: FITC-dextran (10 kDa) perfusion imaging, KPC tumors; type: in vivo, mouse; settings: for FITC-dextran (10 kDa) signal quantification: Extended Data 5C, KPC tumour endpoint, individual FOV, 5xFOV per tumour
Description: FITC-dextran (10 kDa) was administered at 40 mg ml^−1 in saline via tail vain 2 h before culling. Excised tumors were flash-frozen in OCT and cryosectioned at 14 μm. Sections were counterstained with 4,6-diamidino-2-phenylindole (DAPI) and images were collected using a Leica DMI5500 (×40 magnification). Images were quantified using Fiji Software for Integrated Density Signal.
Extended Data Fig. 5 PXS-5505 in combination with gemcitabine in vivo. a. […] Signal is defined as the enzyme activity in the aorta, while noise is measured in the presence of a high concentration (300 µM) BAPN to abolish any lysyl oxidase family activity. […] Data presented as mean values +/− SD b. […] Data presented as mean values +/− SD. c. FITC-dextran (molecular weight: 10 kDa) signal quantification from KPC tumor end point from each treatment group (vehicle n = 3 biologically independent animals, PXS-5505 n = 5 biologically independent animals, Gem n = 5 biologically independent animals, PXS-5505 + Gem n = 5 biologically independent animals). […] P-values determined by Welchs t-test. Data presented as mean values +/− SD. Scale bars = 100 μm d. Quantification of red birefringent (mature) collagen fibers from human PDXs at end point after 3 cycles of treatment, treated as indicated. […] Quantification of bulk modulus (stiffness) by unconfined compression testing of end point human PDX tumors from each treatment group (vehicle n = 5 biologically independent animals, Gem n = 5 biologically independent animals, PXS-5505 n = 5 biologically independent animals, PXS-5505 + Gem n = 5 biologically independent animals) [individual tumors shown]). […] FITC-dextran (molecular weight 10 kDa) signal quantification from human PDXs from each treatment group (vehicle n = 4 biologically independent animals, PXS-5505 n = 5 biologically independent animals, Gem n = 5 biologically independent animals, PXS-5505 + Gem n = 5 biologically independent animals). […] P values determined by Welchs t-test. g. […] Quantification of green birefringent (nascent) collagen fibers from human PDXs at end point, treated as indicated. […]

[2] = 50 nM gemcitabine, 48 hours, per replicate
[3] = 50 nM gemcitabine, 48 hours, vs GAPDH, per replicate
[4] = 48 hour treatment, 30 M PXS-5505, replicates
[5] = 48 hour treatment, PXS-5505, replicates
[6] = 48 hour treatment, PXS-5505, vs GAPDH, replicates

Nc1ccn([C@@H]2O[C@H](CO)[C@@H](O)C2(F)F)c(=O)n1 [Gem, gemcitabine]
expression of lysyl oxidase family members ([1]; 50 nM gemcitabine for 48 hours): increased
LOX ΔΔCt CC [1, 2]: 1.655 and 2.327 and 2.145
LOXL1 ΔΔCt CC [1, 2]: 1.866 and 1.895 and 1.813
LOXL2 ΔΔCt CC [1, 2]: 2.3261 and 2.2233 and 1.33
LOXL3 ΔΔCt CC [1, 2]: 1.66 and 2.86 and 2.05
LOXL4 ΔΔCt CC [1, 2]: 2.014 and 1.617 and 1.18
LOX ΔCt [1, 3]: 6.157 and 5.668 and 5.782
LOXL1 ΔCt [1, 3]: 8.043 and 8.021 and 8.085
LOXL2 ΔCt [1, 3]: 4.354 and 4.419 and 5.16
LOXL3 ΔCt [1, 3]: 4.977 and 5.26 and 5.74
LOXL4 ΔCt [1, 3]: 6.2696 and 6.5867 and 7.04
FITC-dextran (10 kDa) signal quantification (KPC PDAC tumors): 60068 and 66083 and 67045 and 264388 and 103749 and 136715 and 44993 and 342971 and 570220 and 195046 and 425899 and 308368 and 729076 and 598797 and 690249 and 193339 and 215616 and 99212 and 74761 and 57841
FITC-dextran signal (tumor perfusion) (KPC PDAC tumors; KPC tumors at end point): significantly reduced FITC signal

Cl.Cl.NC/C=C(\F)CS(=O)(=O)c1cccc2cccnc12.O [PXS-5505, (Z)-3-fluoro-4-(quinolin-8-ylsulfonyl)but-2-en-1-amine dihydrochloride monohydrate]
qRT-PCR LOXL1 (Ct) [1, 4]: 27.9242 and 27.0668
qRT-PCR LOXL2 (Ct) [1, 4]: 25.5976 and 25.3053 and 25.9273
qRT-PCR LOXL3 (Ct) [1, 4]: 27.0409 and 26.0554 and 26.3059
qRT-PCR LOXL4 (Ct) [1, 4]: 27.6755 and 27.1763 and 27.4097
qRT-PCR LOX (Ct) [1, 5]: 27.9362 and 27.041 and 26.9697
qRT-PCR LOX ΔΔCt KPC CAF [1, 5]: 0.4495 and 1.003 and 0.5566
qRT-PCR LOXL1 ΔΔCt KPC CAF [1, 5]: 0.5108 and 0.4889 and 0.4223
qRT-PCR LOXL2 ΔΔCt KPC CAF [1, 5]: 0.6912 and 0.4472 and 0.4586
qRT-PCR LOXL3 ΔΔCt KPC CAF [1, 5]: 0.6435 and 0.6732 and 0.893
qRT-PCR LOXL4 ΔΔCt KPC CAF [1, 5]: 1.222 and 0.9127 and 1.225
qRT-PCR LOX ΔCt [1, 6]: 9.054 and 7.896 and 8.745
qRT-PCR LOXL1 ΔCt [1, 6]: 8.779 and 8.842
qRT-PCR LOXL2 ΔCt [1, 6]: 6.453 and 7.081 and 7.045
qRT-PCR LOXL3 ΔCt [1, 6]: 7.896 and 7.831 and 7.423
qRT-PCR LOXL4 ΔCt [1, 6]: 8.531 and 8.952 and 8.527
transcription of lysyl oxidase family members ([1]; PXS-5505 up to 300 µM): does not significantly alter transcription
FITC-dextran (10 kDa) signal quantification (KPC PDAC tumors): 643536 and 877109 and 855018 and 639402 and 1028780 and 1101294 and 1096543 and 614729 and 1678517 and 411292 and 888855 and 96222 and 332580 and 192955 and 224263 and 475860 and 248857 and 803743 and 104073 and 736895

From publication PMC10518255, “A first-in-class pan-lysyl oxidase inhibitor impairs stromal remodeling and enhances gemcitabine response and survival in pancreatic cancer” (Nature Cancer, 2023)
